A word on the pIC50: it is the IC50 on a negative log10 scale, so that one unit is a factor of ten. Low values mean a large IC50, high ones a small IC50.

pIC50: −log10 of the molar value.

Drawing on patent publication US6903089B1, “Lactam-substituted pyrazolopyridine derivatives” (Bayer Aktiengesellschaft, priority 2000, dated 2005), this text covers IC50 for eleven molecules.

This test relates to rabbit aorta rings. The experiment in a line: Vasorelaxant effect in vitro (phenylephrine-contracted rabbit aorta rings). The note with it: Oryctolagus cuniculus, contraction generated by phenylephrine, concentration reducing height of control contraction by 50%. On the procedure: Rabbits are stunned by a blow to the back of the neck and are exsanguinated. The aorta is removed, freed of adherent tissue, divided into rings 1.5 mm wide and put singly under tension in 5 ml organ baths containing carbogen-gassed Krebs-Henseleit solution at 37° C. with the following composition (mM): NaCl: 119; KCl: 4.8; CaCl2×2H2O: 1; MgSO4×7 H2O: 1.4; KH2PO4: 1.2; NaHCO3: 25; glucose: 10. The force of contraction is detected with Statham UC2 cells, amplified and digitized via A/D converters (DAS-1802 HC, Keithley Instruments Munich) and recorded in parallel on chart recorders. A contraction is generated by adding phenylephrine to the bath cumulatively in increasing concentration. After several control cycles, the substance to be investigated is investigated in each further run in increing dosage in each case, and the height of the contraction is compared with the height of the contraction reached in the last preceding run. The concentration necessary to reduce the height of the control value by 50% (IC50) is calculated from this. The standard application volume is 5 μl, and the DMSO content in the bath solution corresponds to 0.1%.

Regarding `CC(=O)Nc1nc(-c2nn(Cc3ccccc3F)c3ncccc23)ncc1N1CCOC1=O` [Example 21, N-[2-[1-(2-Fluorebenzyl)-1H-pyrazolo[34-b]pyridin-3-yl]-5-(2-oxo-1,3-oxazolidin-3-yl)-4-pyrimidinyl]acetamide], the pIC50 was 6.60.

Turning to `CC12CC1C(=O)N(c1cnc(-c3nn(Cc4ccccc4F)c4ncccc34)nc1N)C2=O` (centres unmarked) [Example 19], the pIC50 was 6.39.

In turn, `Nc1nc(-c2nn(Cc3ccccc3F)c3ncccc23)ncc1N1CCSC1=O` [Example 16] showed a pIC50 of 5.91.

In turn, `Nc1nc(-c2nn(Cc3ccccc3F)c3ncccc23)ncc1N1CCCCCC1=O` [Example 5] gave a negative logarithm of the IC50 (pIC50) of 5.98.

`CC1C(=O)N(c2cnc(-c3nn(Cc4ccccc4F)c4ncccc34)nc2N)C(=O)C1(C)C` (centres unmarked) [Example 13] had a negative-log IC50 (pIC50) of 6.16.

In the case of `Nc1nc(-c2nn(Cc3ccccc3F)c3ncccc23)ncc1N1CCOC1=O` [Example 15], the pIC50 is 5.92. This pIC50 lies 0.24 log units lower than the previous one.

`Nc1nc(-c2nn(Cc3ccccc3F)c3ncccc23)ncc1N1CCCCC1=O` [Example 3] had a negative-log IC50 (pIC50) of 5.70.

In turn, `CC1(C)CN(c2cnc(-c3nn(Cc4ccccc4F)c4ncccc34)nc2N)C(=O)C1(C)C` [Example 9] had a negative logarithm of the IC50 (pIC50) of 6.15. This pIC50 lies 0.45 log units higher than the previous one.

Molecule `Nc1nc(-c2nn(Cc3ccccc3F)c3ncccc23)ncc1N1C(=O)c2ccccc2C1=O` [Example 22, 2-{4-Amino-2-[1-(2-fluorobenzyl)-1H-pyrazolo[3,4-b]pyridin-3-yl]-5-pyrimidinyl}-1H-isoindole-1,3(2H)-dione] had a pIC50 of 6.22.

Take `Nc1nc(-c2nn(Cc3ccccc3F)c3ncccc23)ncc1N1CCCC1=O` [Example 2]: the negative logarithm of the IC50 (pIC50) was 5.96. This pIC50 lies 0.26 log units lower than the previous one.

Regarding `CC1(C)OC(=O)N(c2cnc(-c3nn(Cc4ccccc4F)c4ncccc34)nc2N)C1=O` [Example 14, 3-{4-Amino-2-[1-(2-fluorobenzyl)-1H-pyrazolo[3,4-b]pyridin-3-yl]-5-pyrimidinyl}-5,5-dimethyl-1,3-oxazolidine-2,4-dione], the pIC50 is 6.38.
